Data: the supplement of paper PMC11061612

Assays:
[1] = tested on: A704 (Kidney Carcinoma); experiment: Bliss excess, mean over the matrix (fraction); higher = more synergy
Procedure, shortened: (§1)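 Cell lines grown in DMEM/F12 or RPMI with 10% FBS were plated in 1536-well plates and held 24 hours at 37°C, 5% CO2 before 72 hours of exposure to two-drug dose matrices, with DMSO typically at 0.2%. CellTiter-Glo 2.0 luminescence gave viability, which was converted to inhibition. Vehicle wells were set to 0 and blank wells to 1. Combination Emax is the second-highest inhibition in the matrix, and Bliss excess is the observed combination effect minus the expected EA + EB − EA·EB, where EA and EB are the single-agent effects.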

[2] = tested on: EMC-BAC-2 (Non-Small Cell Lung Carcinoma); experiment: as above
Procedure, shortened: as §1

[3] = tested on: GOTO (Neuroblastoma); experiment: as above
Procedure, shortened: as §1

[4] = tested on: KYSE-50 (Esophageal Squamous Cell Carcinoma); experiment: as above
Procedure, shortened: as §1

[5] = tested on: NB7 (Neuroblastoma); experiment: as above
Procedure, shortened: as §1

[6] = tested on: VMRC-LCD (Lung Adenocarcinoma); experiment: as above
Procedure, shortened: as §1

[7] = tested on: DG-75 (Burkitt's Lymphoma); experiment: combination Emax (second highest fraction inhibited in the dose matrix, 72 h); higher = more inhibition; extreme values may be limits of the assay
Procedure, shortened: as §1

[8] = tested on: EW-13 (Ewing's Sarcoma); experiment: as above
Procedure, shortened: as §1

[9] = tested on: GOTO (Neuroblastoma); experiment: as above
Procedure, shortened: as §1

[10] = tested on: HuP-T3 (Pancreatic Carcinoma); experiment: as above
Procedure, shortened: as §1

[11] = tested on: IMR-5 (Neuroblastoma); experiment: as above
Procedure, shortened: as §1

[12] = tested on: KYSE-50 (Esophageal Squamous Cell Carcinoma); experiment: as above
Procedure, shortened: as §1

[13] = tested on: MFE-319 (Endometrial Carcinoma); experiment: as above
Procedure, shortened: as §1

[14] = tested on: NB7 (Neuroblastoma); experiment: as above
Procedure, shortened: as §1

[15] = tested on: NCI-H2405 (Lung Adenocarcinoma); experiment: as above
Procedure, shortened: as §1

[16] = tested on: NCI-H513 (Other Solid Carcinomas); experiment: as above
Procedure, shortened: as §1

[17] = tested on: OCUM-1 (Gastric Carcinoma); experiment: as above
Procedure, shortened: as §1

[18] = tested on: TGBC11TKB (Gastric Carcinoma); experiment: as above
Procedure, shortened: as §1

[19] = tested on: VMRC-LCD (Lung Adenocarcinoma); experiment: as above
Procedure, shortened: as §1
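Throughout, for Bliss excess, mean over the matrix: after 72 h of two-drug dosing.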

SMILES	Bliss excess [1]	Bliss excess [2]	Bliss excess [3]	Bliss excess [4]	Bliss excess [5]	Bliss excess [6]	combination Emax [7]	combination Emax [8]	combination Emax [9]	combination Emax [10]	combination Emax [11]	combination Emax [12]	combination Emax [13]	combination Emax [14]	combination Emax [15]	combination Emax [16]	combination Emax [17]	combination Emax [18]	combination Emax [19]
CN(C)CCCOc1ccc(-c2ccc3ncc4c(c3c2)n(C2CCOCC2)c(=O)n4C)cn1 [AZD0156] + CCN(CCO)CCCOc1ccc2c(Nc3cc(CC(=O)Nc4cccc(F)c4)[nH]n3)ncnc2c1 [AZD2811] (first compound max 1 µM, 7x7, partner max 1 µM)	-0.039	-0.0005	0.129	-0.0128	-0.0082	-0.0476	0.365	0.332	0.649	0.0599	0.967	0.204	0.147	0.276	0.106	0.136	0.332	0.325	0.545
COc1cccc(OCCCN)c1-c1cc(Nc2cnc(C#N)cn2)n[nH]1 [Prexasertib] + CN(C)CCCOc1ccc(-c2ccc3ncc4c(c3c2)n(C2CCOCC2)c(=O)n4C)cn1 [AZD0156] (first compound max 1 µM, 7x7, partner max 1 µM)	0.0033	0.0756	-0.0098	0.0138	-0.0194	-0.0075	0.964	0.452	0.908	0.7	0.963	0.844	0.815	0.858	0.406	0.343	0.818	0.963	0.751
COc1cccc(OCCCN)c1-c1cc(Nc2cnc(C#N)cn2)n[nH]1 [Prexasertib] + O=C(c1cc(Cc2n[nH]c(=O)c3ccccc23)ccc1F)N1CCN(C(=O)C2CC2)CC1 [Olaparib] (first compound max 1 µM, 7x7, partner max 10 µM)	-0.0973	-0.0494	-0.101	-0.117	-0.113	-0.0955	0.827	0.698	0.858	0.695	0.976	0.75	0.811	0.749	0.368	0.295	0.7	0.952	0.679
CCN(CCO)CCCOc1ccc2c(Nc3cc(CC(=O)Nc4cccc(F)c4)[nH]n3)ncnc2c1 [AZD2811] + O=C(c1cc(Cc2n[nH]c(=O)c3ccccc23)ccc1F)N1CCN(C(=O)C2CC2)CC1 [Olaparib] (first compound max 1 µM, 7x7, partner max 10 µM)	-0.0195	0.0112	0.0341	0.0397	0.0598	-0.0949	0.307	0.701	0.654	0.163	0.962	0.282	0.245	0.473	0.234	0.0855	0.379	0.408	0.545
C[C@@H]1COCCN1c1cc(C2([S@](C)(=N)=O)CC2)nc(-c2ccnc3[nH]ccc23)n1 [AZD6738] + O=C(c1cc(Cc2n[nH]c(=O)c3ccccc23)ccc1F)N1CCN(C(=O)C2CC2)CC1 [Olaparib] (first compound max 10 µM, 7x7, partner max 10 µM)	-0.0282	-0.007	-0.0645	-0.0202	0.0202	-0.0231	0.835	0.757	0.808	0.705	0.958	0.437	0.567	0.944	0.28	0.362	0.675	0.796	0.562
C=CCn1c(=O)c2cnc(Nc3ccc(N4CCN(C)CC4)cc3)nc2n1-c1cccc(C(C)(C)O)n1 [AZD1775] + C[C@@H]1COCCN1C2=NC(=NC(=C2)C3(CC3)[S@](=N)(=O)C)C4=C5C=CNC5=NC=C4 [AZD6738] (first compound max 1 µM, partner max 10 µM)	-0.0022	0.0125	-0.0186	0.0328	-0.025	0.0369	0.978	0.653	0.888	0.705	0.986	0.694	0.825	0.934	0.355	0.439	0.816	0.922	0.733
COc1cc2c(cc1OCCCCCOc1cc3c(cc1OC)C(=O)N1C=C(C)C[C@H]1C=N3)N=C[C@@H]1CC(C)=CN1C2=O [SG3199] + O=C(c1cc(Cc2n[nH]c(=O)c3ccccc23)ccc1F)N1CCN(C(=O)C2CC2)CC1 [Olaparib] (first compound max 0.001 µM, 7x7, partner max 10 µM)	-0.025	-0.0467	0.0943	-0.0319	-0.0474	-0.042	0.201	0.584	0.522	0.112	0.543	0.0539	0.12	0.166	0.081	0.107	0.122	0.3	0.0613
Cc1cc2ncnn2cc1Nc1ncc2c(n1)n(C1CCOCC1)c(=O)n2C [AZD7648] + CCN(CCO)CCCOc1ccc2c(Nc3cc(CC(=O)Nc4cccc(F)c4)[nH]n3)ncnc2c1 [AZD2811] (first compound max 10 µM, 7x7, partner max 1 µM)	-0.0368	0.0514	0.0582	0.0784	0.0415	-0.0267	0.475	0.291	0.491	0.161	0.98	0.341	0.278	0.406	0.188	0.116	0.369	0.327	0.619
Cc1cc2ncnn2cc1Nc1ncc2c(n1)n(C1CCOCC1)c(=O)n2C [AZD7648] + C[C@@H]1COCCN1C2=NC(=NC(=C2)C3(CC3)[S@](=N)(=O)C)C4=C5C=CNC5=NC=C4 [AZD6738] (first compound max 10 µM, 7x7, partner max 10 µM)	0.0177	0.0575	-0.0205	-0.0089	0.0143	0.0143	0.885	0.564	0.889	0.606	0.951	0.628	0.726	0.572	0.241	0.31	0.719	0.861	0.579
CN(C)CCCOc1ccc(-c2ccc3ncc4c(c3c2)n(C2CCOCC2)c(=O)n4C)cn1 [AZD0156] + C=CCn1c(=O)c2cnc(Nc3ccc(N4CCN(C)CC4)cc3)nc2n1-c1cccc(C(C)(C)O)n1 [AZD1775] (first compound max 1 µM, partner max 1 µM)	-0.0484	-0.0289	0.0051	-0.0116	-0.0198	-0.0399	0.759	0.444	0.865	0.205	0.741	0.27	0.63	0.6	0.0974	0.393	0.548	0.895	0.357
COc1cccc(OCCCN)c1-c1cc(Nc2cnc(C#N)cn2)n[nH]1 [Prexasertib] + C[C@@H]1COCCN1C2=NC(=NC(=C2)C3(CC3)[S@](=N)(=O)C)C4=C5C=CNC5=NC=C4 [AZD6738] (first compound max 1 µM, 7x7, partner max 10 µM)	0.0224	0.0076	-0.0866	0.0034	-0.0018	0.0201	0.942	0.632	0.913	0.663	1	0.818	0.826	0.808	0.337	0.363	0.813	0.977	0.753
COc1cccc(OCCCN)c1-c1cc(Nc2cnc(C#N)cn2)n[nH]1 [Prexasertib] + Cc1cc2ncnn2cc1Nc1ncc2c(n1)n(C1CCOCC1)c(=O)n2C [AZD7648] (first compound max 1 µM, 7x7, partner max 10 µM)	0.0144	-0.019	-0.0243	-0.0296	-0.0195	-0.0323	0.923	0.512	0.908	0.716	0.98	0.818	0.865	0.842	0.412	0.36	0.803	0.96	0.749
CCN(CCO)CCCOc1ccc2c(Nc3cc(CC(=O)Nc4cccc(F)c4)[nH]n3)ncnc2c1 [AZD2811] + C=CCn1c(=O)c2cnc(Nc3ccc(N4CCN(C)CC4)cc3)nc2n1-c1cccc(C(C)(C)O)n1 [AZD1775] (first compound max 1 µM, partner max 1 µM)	-0.0547	-0.0112	-0.0162	0.0006	0.0497	0.0049	0.776	0.355	0.883	0.197	0.998	0.301	0.578	0.662	0.128	0.368	0.482	0.818	0.553
COc1cccc2c1C(=O)c1c(O)c3c(c(O)c1C2=O)C[C@@](O)(C(=O)CO)C[C@@H]3O[C@H]1C[C@H](N)[C@H](O)[C@H](C)O1 [Doxorubicin] + Cc1cc2ncnn2cc1Nc1ncc2c(n1)n(C1CCOCC1)c(=O)n2C [AZD7648] (first compound max 1 µM, 7x7, partner max 10 µM)	-0.023	0.0828	0.0644	0.0331	0.0742	0.0256	0.882	0.745	0.816	0.606	1	0.678	0.552	0.826	0.201	0.527	0.596	0.203	0.612
